Where two headings read alike, the source gives them in different places.
Experiments:
[1] = molecular target: T1, wild type aromatase (CYP19A1*1) (Homo sapiens, UniProt P11511); test: Anti-aromatase activity assay, estrone formation by UPLC/MS/MS, microsomes of HEK293 overexpressing wild type aromatase; type: biochemical
T1 sequence (P11511 1-503): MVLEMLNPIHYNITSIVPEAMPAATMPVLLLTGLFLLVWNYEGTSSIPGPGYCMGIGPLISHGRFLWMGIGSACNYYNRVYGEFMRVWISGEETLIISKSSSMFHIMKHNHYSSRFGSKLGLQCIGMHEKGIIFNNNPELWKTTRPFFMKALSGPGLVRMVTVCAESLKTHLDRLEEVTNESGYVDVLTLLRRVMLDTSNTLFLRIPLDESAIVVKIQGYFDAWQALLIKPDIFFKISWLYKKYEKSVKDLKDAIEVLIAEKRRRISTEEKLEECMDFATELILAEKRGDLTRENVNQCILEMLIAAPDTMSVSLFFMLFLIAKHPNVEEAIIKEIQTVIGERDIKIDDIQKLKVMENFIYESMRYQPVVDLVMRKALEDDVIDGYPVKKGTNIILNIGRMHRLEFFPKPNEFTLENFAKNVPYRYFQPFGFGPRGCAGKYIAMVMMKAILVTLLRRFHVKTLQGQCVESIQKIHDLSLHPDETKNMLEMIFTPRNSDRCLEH

[2] = EXE metabolite identification in human liver microsomes by UPLC/MS/MS; type: in vitro ADME; conditions: 50 μg HLM, 400 μmol/L EXE, NADPH regeneration system, 37°C, 4 h; for identified as phase I EXE metabolite in incubations of EXE with pooled human liver microsomes: comparison to reference compounds
aromatase = test system: aromatase; design: method as in Buzzetti et al. 1993; conditions: ref Buzzetti et al. 1993; cited from earlier work

Structure (SMILES) | IC50 [1] | identified as phase I EXE metabolite in incubations of EXE with pooled human liver microsomes [2] | further results
C[C@]12C=CC(=O)C=C1C(CO)=CC1C2CC[C@]2(C)C(=O)CCC12 (some centres unmarked) [6-hydroxymethylandrosta-1,4,6-triene-3,17-dione] | 61 ± 20 µM | identified | fold less potent than EXE (wild type aromatase) ([1]; ratio of IC50 values versus EXE): 67 fold
C[C@]12C=CC(=O)C=C1[C@@]1(CO1)CC1C2CC[C@]2(C)C(=O)CCC12 (stereo partly drawn) [6α-spirooxiranandrosta-1,4-diene-3,17-dione] | 1.2 ± 0.19 µM |  | fold more potency than its 6β stereoisomer (wild type aromatase) ([1]; ratio of IC50 values versus 6β-spirooxiranandrosta-1,4-diene-3,17-dione): ~5 fold
C[C@]12C=CC(=O)C=C1C(O)(CO)CC1C2CC[C@@]2(C)C1CC[C@@H]2O (stereo partly drawn) [6α/β,17β-dihydroxy-6α/β-hydroxymethylandrosta-1,4-diene-3-one] | > 100 µM | identified | 
C[C@]12C=CC(=O)C=C1C(O)(CO)CC1C2CC[C@]2(C)C(=O)CCC12 (stereo partly drawn) [6α/β-hydroxy-6α/β-hydroxymethylandrosta-1,4-diene-3,17-dione] | > 100 µM | identified | 
C[C@]12C=CC(=O)C=C1[C@]1(CO1)CC1C2CC[C@]2(C)C(=O)CCC12 (stereo partly drawn) [6β-spirooxiranandrosta-1,4-diene-3,17-dione] | 5.7 ± 1.6 µM |  | 
C=C1CC2C(CC[C@@]3(C)C2CC[C@@H]3O)[C@@]2(C)C=CC(=O)C=C12 (stereo partly drawn) [17β-dihydroexemestane] |  | identified | fold less potent than EXE (earlier study) (aromatase): approximately 2.6 fold; abundance of the EXE metabolite formed in human liver microsomes [2]: predominant EXE metabolite
C[C@]12CC[C@H]3[C@@H](C=C(CO)C4=CC(=O)C=C[C@@]43C)[C@@H]1CC[C@@H]2O [17β-hydroxy-6-hydroxymethylandrosta-1,4,6-triene-3-one] |  |  | IC50 ([1]; 15 μg HEK293 microsomes, 5 μmol/L androstenedione, NADPH regeneration system, 37°C, 2 h, read-out: IC50 for wild-type aromatase): > 100 µM
